Assay [1] concerns Phytophtora infectans. Briefly: Test of fungicidal action (fungal growth inhibition vs. untreated control; ED50 and Wirkungsgrad). The assay is classed as cell-based. How it is done: Dazu können z.B. in die Kavitäten von Mikrotiterplatten eine Lösung des zu prüfenden Wirkstoffs pipettiert werden. Nachdem das Lösungsmittel abgedampft war, wird zu jeder Kavität Medium hinzugefügt. Das Medium wird vorher mit einer geeigneten Konzentration von Sporen bzw. Mycel des zu prüfenden Pilzes versetzt. Die resultierenden Konzentrationen des Wirkstoffes betragen z.B. 0,1, 1, 10 und 100 ppm.
Die Platten werden anschließend auf einem Schüttler bei einer Temperatur von 22°C inkubiert, bis in der unbehandelten Kontrolle ein ausreichendes Wachstum feststellbar ist.
Die Auswertung erfolgt dann photometrisch bei einer Wellenlänge von 620 nm. Aus den Messdaten der verschiedenen Konzentrationen kann die Wirkstoffdosis bestimmt werden, die zu einer 50 %igen Hemmung des Pilzwachstums gegenüber der unbehandelten Kontrolle führt (ED50).
Ein anderes Verfahren zur Prüfung der fungiziden Wirkung beruht darauf, die protektive Wirkung der zu testenden Verbindung an einer Pflanze zu testen. Dazu wird die Pflanze mit einer Lösung des zu prüfenden Wirkstoffs besprüht und anschließend mit einer Lösung von Pilzssporen inokuliert und über mehrere Tage hinweg beobachtet. Es kann dann im Vergleich zu einer Pflanze, die nicht vorab mit einer Wirkstofflösung behandelt wurde, festgestellt werden, ob der zu prüfende Wirkstoff den Befall bzw. die Ausbreitung des Pilzes verhindert oder mindert.
Auch hier kann die Wirkstoffkonzentration bestimmt werden, die zu einer 50 %igen Hemmung des Pilzwachstums gegenüber der unbehandelten Kontrolle führt (ED50).
Weiterhin kann als Größe zur Beurteilung einer fungiziden Wirkung der Wirkungsgrad herangezogen werden, wobei 0 % für einen Wirkungsgrad steht, der demjenigen der Kontrolle entspricht, während ein Wirkungsgrad von 100 % bedeutet, daß kein Befall beobachtet wird.
In die Kavitäten von Mikrotiterplatten wurde eine methanolische Lösung des anhand eines erfindungsgemäßen Verfahrens identifizierten Wirkstoffs (Tab. I, Bsp. 2), versetzt mit einem Emulgator, pipettiert. […]

The target in assay [2] is T1, Phosphomannomutase (Saccharomyces cerevisiae, UniProt P07283).
T1 construct: made in house; host or cells: E. coli BL21 (DE3), plasmid pSec53 (pGEX-4T-1)
T1 sequence (P07283 1-254): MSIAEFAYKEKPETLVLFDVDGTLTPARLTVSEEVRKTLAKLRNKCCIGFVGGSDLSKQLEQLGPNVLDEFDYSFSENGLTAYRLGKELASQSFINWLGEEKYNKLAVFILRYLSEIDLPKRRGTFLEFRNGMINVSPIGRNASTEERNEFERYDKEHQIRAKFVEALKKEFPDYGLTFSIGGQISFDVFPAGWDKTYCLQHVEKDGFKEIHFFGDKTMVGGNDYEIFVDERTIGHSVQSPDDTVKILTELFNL
Briefly: Phosphomannomutase inhibition test, coupled fluorescence assay (NADPH) in 384-well MTP. Type of assay: biochemical. The following applies: negative decadic logarithm of the molar IC50 (50 % inhibition of the enzyme). As for the experimental part: Die Messung kann auch in für HTS- oder UHTS-Assays gängigeren Formaten erfolgen, z.B. in Mikrotiterplatten, in denen z.B. ein Gesamtvolumen von 5 bis 50 µl pro Ansatz bzw. pro Well vorgelegt wird und die einzelnen Komponenten in einer der vorstehend angegebenen Endkonzentrationen vorliegen (vgl. Beispiel 2). Dabei wird die zu testende, potentiell die Aktivität des Enzyms inhibierende oder aktivierende Verbindung (Kandidatenmolekül) z.B. in einer geeigneten Konzentration im oben angegebenen Testpuffer enthaltend D-Mannose-1-phosphat vorgelegt. Dann wird das erfindungsgemäße Polypeptid in oben genanntem Testpuffer, enthaltend NADP^+, Glucose und die für den gekoppelten Assay notwendigen Hilfsenzyme Phosphoglucose Isomerase und Glucose-6-phosphat Dehydrogenase zugegeben und die Reaktion damit gestartet. Der Ansatz wird dann z.B. bis zu 2 oder 3 Stunden bei einer geeigneten Temperatur inkubiert und die Fluoreszenzzunahme bei einer Anregungswellenlänge von 360 nm und einer Emissionswellenlänge von 460 nm gemessen.
Eine weitere Messung erfolgt in einem entsprechenden Ansatz, jedoch ohne Zugabe eines Kandidatenmoleküls und ohne Zugabe eines erfindungsgemäßen Polypeptids (Negativkontrolle). Eine weitere Messung erfolgt wiederum bei Abwesenheit eines Kandidatenmoleküls, jedoch bei Anwesenheit des erfindungsgemäßen Polypeptids (Positivkontrolle). […]

Molecules are shown by their SMILES.

Molecule `C[n+]1ccc(/C=C/c2ccc(N(c3ccc(/C=C/c4cc[n+](C)cc4)cc3)c3ccc(N(c4ccc(/C=C/c5cc[n+](C)cc5)cc4)c4ccc(/C=C/c5cc[n+](C)cc5)cc4)cc3)cc2)cc1` [Beispiel 2] showed an ED50 in assay [1] (Phytophtora infectans, 50 % inhibition of fungal growth vs. untreated control) of 500 ppm. This molecule also displayed a WG in assay [1] (Phytophtora infectans, Wirkungsgrad: 0 % = like control, 100 % = no infestation) of 33%. For the same molecule, the “fungizide Wirkung” value in assay [1] (at the application rate given in Tabelle II) was “deutlich fungizide Wirkung”. For the same molecule, in assay [2], the pI50 was 4,9.

For the origin of these results see patent publication EP1374681A1, “Process for identifying fungicidally active compounds” (Bayer CropScience AG, priority 2002, dated 2004).
